Measurements as given in US20120108624A1, “TREATMENT OF DYSKINESIA RELATED DISORDERS” (priority 2009, published 2012).
Counter-ions that a name gives are not always drawn.

Legend:
[1] = system: mouse model of severe dopamine depletion; assay: Superiority model (MPTP mice treated with AMPT, motility); assay type: in vivo; conditions: AMPT 250 mg/kg s.c., last 1 hour of recorded data
Experimental: On the day of the experiment, mice were treated with AMPT (250 mg/kg subcutaneously) and then returned to their home cages for 1.5 hours after which they were placed in individual cages in the motility unit. AMPT (alpha-methyl-p-tyrosine) is a drug that temporarily reduces brain catecholamine activity (in this case especially dopamine levels). […] Various dopaminergic compounds were tested for their ability to reverse the motility deficits produced in this model. […] Benserazide is a DOPA decarboxylase inhibitor which is unable to cross the blood-brain barrier; it is used to prevent metabolism of L-DOPA to dopamine outside the brain.
On the day of the experiment, mice were treated with AMPT (250 mg/kg subcutaneously) and then returned to their home cages for 1.5 hours after which they are placed in individual cages in the motility unit. AMPT (alpha-methyl-p-tyrosine) is a drug that temporarily reduces brain catecholamine activity (in this case especially dopamine levels). […] Various dopaminergic compounds are tested for their ability to reverse the motility deficits produced in this model. […] Benserazide is a DOPA decarboxylase inhibitor which is unable to cross the blood-brain barrier; it is used to prevent metabolism of L-DOPA to dopamine outside the brain.
On the day of the experiment, mice were treated with AMPT (250 mg/kg subcutaneously) and then returned to their home cages for 1.5 hours after which they were placed in individual cages in the motility unit. AMPT (alpha-methyl-p-tyrosine) is a drug that temporarily reduces brain catecholamine activity (in this case especially dopamine levels). […] Various dopaminergic compounds were tested for their ability to reverse the motility deficits produced in this model. […] Benserazide is a DOPA decarboxylase inhibitor which is unable to cross the blood-brain barrier; it was used to prevent metabolism of L-DOPA to dopamine outside the brain.

[2] = system: Sprague Dawley rats with unilateral 6-OHDA lesions; assay: Induction of dyskinesia model with naive 6-OHDA rats (AIMS); assay type: in vivo, rat; conditions: once daily s.c. for 14 days, scored up to day 12
Experimental: Twenty male Sprague Dawley rats with unilateral 6-OHDA lesions were used to test induction of dyskinesia by compound 10 (administered subcutaneously; n=7; group 1) compared to L-DOPA/benserazide (6 mg/kg / 15 mg/kg subcutaneously; n=7; group 2) and apomorphine (1 mg/kg subcutaneously; n=6; group 3). Benserazide is a DOPA decarboxylase inhibitor which is unable to cross the blood-brain barrier; it is used to prevent metabolism of L-DOPA to dopamine outside the brain. Three weeks after 6-OHDA surgery, the animals were tested for their rotation response induced by 2.5 mg/kg amphetamine, which induces ipsilateral circling (amphetamine increases the level dopamine in the brain via the intact neurons on the unlesioned side causing the animals to rotate in the opposite direction as compared to their response to direct agonists such as L-DOPA and apomorphine that act predominantly on the lesioned side of the brain). […] Rats where then randomly allocated to the three treatment groups balancing the groups for the animals' rotation response on amphetamine.
Rats received drug for 14 consecutive days and were scored on days 1, 2, 3, 4, 5, 8, 10 and 12. […] Following this experiment all rats were given subcutaneous injections of compound 10 from day 15-19 in order to determine how Example I influenced the severity of dyskinesia seen in the apomorphine and L-DOPA groups. Dykinesia scoring was performed on day 19 of the experiment (corresponding to 5 days on compound 10).

MPTP treated marmosets = assay: Anti-Parkinsonian effects in MPTP-treated common marmosets; assay type: in vivo, common marmoset; conditions: dosed p.o.
Experimental: (§1) The experiments were conducted using 6 MPTP treated marmosets (2.0 mg/kg daily for up to 5 consecutive days dissolved in sterile 0.9% saline solution). All the animals had previously been treated with L-DOPA (12.5 mg/kg p.o., plus carbidopa 12.5 mg/kg p.o.) administered daily for up to 30 days in order to induce dyskinesia. […] Domperidone was administered 60 min before any of the test compounds. Domperidone is an anti-dopaminergic drug that suppresses nausea and vomiting. Locomotor Activity was assessed using test cages that are comprised of 8 photo-electric switches comprised of 8 infra-red beams which are strategically placed in the cage and interruption of a beam is recorded as one count. […] The assessment of motor disability was performed by a trained observer blinded to the treatment.
as §1, with “antidopaminergic” for “anti-dopaminergic”
as §1, with “compounds.” for “compounds. Domperidone is an anti-dopaminergic drug that suppresses nausea and vomiting.”

'parkinsonian' rats = assay: Dyskinesia rat model, Example 4 (AIMs, Compound 12 vs. L-DOPA/Benserazide); assay type: in vivo
Experimental: A rat dyskinesia model reported in the literature (Lundblad, et al., Eur. J Neurosci., 2002, 15, 120) was used to examine the effects of Compound 12 vs. L-DOPA/Benserazide with respect to dyskinesias that were assessed as abnormal involuntary movements (AIMs) in ‘parkinsonian’ rats.
Throughout the study animals received L-DOPA/Benserazide (6 mg/kg and 15 mg/kg subcutaneous) or Compound 12 (group B) once daily at t=−20 min. 0-180 min. Animals were scored for dyskinesias. Days 1-14: All animals were dosed with L-DOPA/Benserazide (group A) or Compound 12 (group B).
At days 1, 3, 5, 8 and 12, animals were scored according to AIM-scoring by recording dyskinesias using the Abnormal Involuntary Movement Scale (AIMS) as described previously. Days 15-26: Group A animals were treated with Compound 12 (as group B) instead of L-DOPA/Benserazide. Day 15, 16, 17, 19, 22, 24 and 26: Animals scored according AIM-scoring.

[3] = system: rats with unilateral 6-OHDA lesions; assay: Dyskinesia profile in rats with unilateral 6-OHDA lesions (summary statements); assay type: in vivo, rat; conditions: for induction of dyskinesias compared with L-DOPA and apomorphine / reduction of L-DOPA induced dyskinesias compared with D2 agonists (pramipexole): rats with unilateral 6-OHDA lesions
[4] = Conversion into the active metabolite upon in-vivo administration
[5] = system: rats with unilateral 6-OHDA lesions; assay: 6-OHDA rat model (rotation response); assay type: in vivo; conditions: rotation in unilateral 6-OHDA rats; for D1/D2 ratio: MED and MED to overcome Nemonapride block
Text: Dopamine agonists can have activity at either the D1 receptors, the D2 receptors, or both. The rotation response in rats with unilateral 6-OHDA lesions can be used to assess compounds for their ability to stimulate both receptor types and induce rotation (Ungerstedt and Arbuthnott, Brain Res., 1970, 24, 485; Setler, et al. Eur. J. Pharmacol., 1978, 50(4), 419; and Ungerstedt, et al. “Advances in Dopamine Research” (Kohsaka, Ed.), Pergamon Press, 1982, Oxford, p. 219). 6-OHDA (6-hydroxydopamine) is a neurotoxin used by neurobiologists to selectively kill dopaminergic neurons at the site of injection in the brain in experimental animals. In the 6-OHDA model, the nigrostraital dopamine cells are destroyed on one side of the brain (unilateral) by injecting 6-OHDA into the median forebrain bundle, located in front of the substantia nigra. This unilateral injection combined with stimulation by dopamine agonists such as apomorphine will induce rotation behaviour as only one side of the brain is stimulated. Experiments consist of determining a minimum effective dose (MED) to induce rotation for the compound in question. Once a MED has been determined, a second experiment is performed to determine the MED of the compound to overcome Nemonapride block (MEDNemonapride). Nemonapride is a D2 antagonist that blocks the D2 receptor, therefore any observed rotations would be dependent upon activity at the D1 receptor. Finally, once the MEDNemonapride is known a third experiment is run using the MEDNemonapride dose and observing the effect of the D1 antagonist, SCH 23390 alone, the D2 antagonist, Nemonapride alone and finally, the effect of combined treatment with SCH 23390 and Nemonapride. […] This model was validated using apomorphine as the proof-of-principle compound for mixed D1/D2 agonists.
Dopamine agonists can have activity at either the D1 receptors, the D2 receptors, or both. The rotation response in rats with unilateral 6-OHDA lesions can be used to assess compounds for their ability to stimulate both receptor types and induce rotation (Ungerstedt and Arbuthnott, Brain Res. 24, 485 (1970); Setler, et al., Eur. J. Pharmacol., 50(4), 419 (1978); and Ungerstedt, et al., “Advances in Dopamine Research” (Kohsaka, Ed.), Pergamon Press, 1982, Oxford, p. 219). 6-OHDA (6-hydroxydopamine) is a neurotoxin used by neurobiologists to selectively kill dopaminergic neurons at the site of injection in the brain in experimental animals. In the 6-OHDA model the nigrostraital dopamine cells are destroyed on one side of the brain (unilateral) by injecting 6-OHDA into the median forebrain bundle, located in front of the substantia nigra. […] Once a MED has been determined, a second experiment is performed to determine the MED of the compound to overcome Nemonapride block (MEDNemonapride). […]

[6] = system: 'parkinsonian' rats (6-OHDA rats); assay: Dyskinesia rat model, Example 3 (AIMs, test drug vs. L-DOPA/benserazide); assay type: in vivo
Experimental: A rat dyskinesia model reported in the literature (Lundblad, et al., Eur. J Neurosci., 2002, 15, 120) was used to examine the effects of the active metabolite vs. L-DOPA/benserazide with respect to dyskinesias that were assessed as abnormal involuntary movements (AIMs) in ‘parkinsonian’ rats.
0-180 min. Animals were scored for dyskinesias.
At days 1, 3, 5, 8 and 12, animals were scored according to AIM-scoring by recording dyskinesias using the Abnormal Involuntary Movement Scale (AIMS) as described previously (Lundblad, et al., Eur. J Neurosci., 2002, 15, 120). Days 15-26: Group A animals were treated with the test drug (as group B) instead of L-DOPA/benserazide. Day 15, 16, 17, 19, 22, 24 and 26: Animals scored according AIM-scoring.

## N[C@@H](Cc1ccc(O)c(O)c1)C(=O)O [L-DOPA]
[1]
  reversal of motility deficits / restoration of locomotion: able to reverse motility deficits
[2]
  dyskinesia scores (AIMS): about 70
MPTP treated marmosets
  locomotor activity and motor disability: increased locomotor activity and reversed motor disability

## CCCN1CCC[C@@H]2CC3=C(CCCC3=O)C[C@H]21 [Compound 12, (4aR,10aR)-1-n-propyl-2,3,4,4a,5,7,8,9,10,10a-decahydro-1H-benzo[g]quinolin-6-one]
MPTP treated marmosets
  duration of reversal of motor disability compared to L-DOPA: prolonged reversal of motor disability
  efficacy compared to L-DOPA: as efficacious as L-DOPA
  locomotor activity and motor disability: dose-related increases in locomotor activity and reversal of motor disability
'parkinsonian' rats; after eight days of once daily treatment
  dyskinesia scores (AIMS): 10-25
'parkinsonian' rats; compound 12 for 10 days after L-DOPA/benserazide
  dyskinesia scores (AIMS) after shifting group A from L-DOPA/benserazide: 30-35
'parkinsonian' rats; days 1-14
  induction of dyskinesia compared with L-DOPA: significantly less dyskinesia than L-DOPA
'parkinsonian' rats; group A shifted to compound 12, days 15-26
  reduction of the dyskinesias induced by L-DOPA: able to reduce the dyskinesias induced by L-DOPA
[3]
  induction of dyskinesias compared with L-DOPA and apomorphine: induces less dyskinesias than L-DOPA and apomorphine
  reduction of L-DOPA induced dyskinesias compared with D2 agonists (pramipexole): reduces L-DOPA induced dyskinesias more effectively than D2 agonists
[4]
  conversion into active metabolite (Compound 10): Convert into the Catechol-Containing Active Metabolite

## CCCN1CCC[C@@H]2Cc3c(ccc(O)c3O)C[C@H]21 [Compound 10, (4aR,10aR)-1-Propyl-1,2,3,4,4a,5,10,10a-octahydro-benzo[g]quinoline-6,7-diol hydrobromide]
[5]
  duration of action: ca. 18 h
[2]
  dyskinesia scores (AIMS): about 30

## CCCN1CCC[C@@H]2Cc3c(ccc4c3OCO4)C[C@H]21 [Compound 11, (6aR,10aR)-7-n-Propyl-6,6a,7,8,9,10,10a,11-octahydro-1,3-dioxa-7-aza-cyclopenta[a]anthracene hydrochloride]
[5]
  D1/D2 ratio: about 2
MPTP treated marmosets
  duration of reversal of motor disability compared to L-DOPA: prolonged reversal of motor disability
  efficacy compared to L-DOPA: as efficacious as L-DOPA
  locomotor activity and motor disability: dose-related increases in locomotor activity and reversal of motor disability
[6]; after eight days of once daily treatment, constant until day 12
  dyskinesia scores (AIMS): 2-4
[6]; days 1-14
  induction of dyskinesia compared with L-DOPA: significantly less dyskinesia than L-DOPA
[6]; group A shifted from L-dopa/benserazide to the test drug, days 15-26
  reduction of the dyskinesias induced by L-DOPA: able to reduce the dyskinesias induced by L-DOPA
[3]; rats lesioned with 6-OHDA
  reversal of dyskinesias induced by L-DOPA/benserazide and apomorphine: reversed dyskinesias
[3]
  induction of dyskinesias compared with L-DOPA and apomorphine: induce less dyskinesias than L-DOPA and apomorphine
  reduction of L-DOPA induced dyskinesias compared with D2 agonists (pramipexole): reduce L-DOPA induced dyskinesias more effectively than D2 agonists
[4]
  conversion into active metabolite (Compound 10): Convert into the Catechol-Containing Active Metabolite

## CCCN(CCc1cccs1)[C@H]1CCc2c(O)cccc2C1 [rotigotine, reference compound]
[5]
  D1 component: could not be observed

## CN1CCc2cccc3c2[C@H]1Cc1ccc(O)c(O)c1-3 [apomorphine]
[5]
  D1/D2 ratio: about 3
[1]
  reversal of motility deficits / restoration of locomotion: restored locomotion
[1]; listed as Apomorphine
  reversal of motility deficits / restoration of locomotion: able to reverse motility deficits
[2]
  dyskinesia scores (AIMS): about 70
